# Reference: US20080227838A1, “Method for neuroprotection with glycoluril derivatives” (Cereprotec Incorporated, priority 2007, published 2008)
# How the values were obtained:
# [1] = in vivo; cited from earlier work
# shock = details: in vivo; cited from earlier work
# stress and hypoxia = details: 100-1000 mg/kg, cited from earlier work
# head trauma in mice [2] = experiment: Brain edema (tissue water content) after closed head injury in mice; assay type: in vivo
# Procedure: (§1) The cerebroprotective effect of mebicar was assessed in a model of head trauma in mice (Beni-Adani et al., 2001). This type of trauma produces brain edema (i.e. increase in water content), breakdown of the blood brain barrier (BBB) and clinical dysfunction. The clinical status of the mice is evaluated 1 and 24 hours after injury along with measurement of the extent of cerebral edema. The neurological deficit, assessed by a set of criteria termed the Neurological Severity Score (NSS), is maximal at 1 hour after the initiation of head trauma. The NSS slowly decreases over time from the initiation of head trauma, with the gradual spontaneous recovery of the mice.
# (i) Induction of closed head injury (CHI) in a mice model. Male Sabra mice (strain from Hebrew University of Jerusalem, Israel), weighing 35 to 45 g, were used. CHI was induced under ether anesthesia. A metal rod weighing 333 g was allowed to free fall from a prefixed height (at 3 cm for a mouse weighing 28-32 g) over the exposed skull covering the left hemisphere in the midcoronal plane. The tip of the rod is covered with silicone, and it delivers the impact to the head that is fixed on the bottom plane of the trauma device. Sham-operated mice were anesthetized, their skull exposed, but trauma was not induced. After CHI the mice were assigned to vehicle or mebicar treatment.
# (iii) Evaluation of water content (brain edema). The extent of cerebral edema was evaluated by determining the tissue water content in the injured hemisphere, as previously described (Beni-Adani et al., 2001). Briefly, mice were sacrificed 24 h after injury, the time of peak edema formation, and brain cortical samples of ˜20 mg were cut from the left (traumatized) and right (contralateral) hemispheres, from the site bordering the lesion. The right (non-injured) hemisphere was used as an internal control. Samples were weighed before and after drying in a desiccated oven for 24 h at 95° C. After weighing the “dried” sections, the brain water content was calculated as % H2O=[(wet weight−dry weight)×100]/wet weight.
# (iv) Evaluation of drug effect on brain edema. In order to evaluate the effect of a drug, and to do it in a “clinical-relevant” setting, the drug is given 1 h after the injury, immediately after the initial assessment of NSS. This protocol allows a homogenous distribution of the mice between the drug and vehicle treatments, and ensures similar severity of injury in both groups. NSS is then evaluated again at 24 h after injury, and ΔNSS is calculated. The mice are then sacrificed, their brain removed and cortical segments from the site of injury, and contralaterally, are taken for evaluation of edema, as described above in (iii). […]
# experimental arrhythmias = details: in vivo; cited from earlier work
# myocardial contractility = details: in vivo; cited from earlier work
# head trauma in mice [3] = experiment: Clinical evaluation (Neurological Severity Score) after closed head injury in mice; assay type: in vivo; details: mebicar 750 mg/kg i.p., 5 mice out of 9, spontaneous recovery 2 out of 10 (20%)
# Procedure: as §1
# (i) Induction of closed head injury (CHI) in a mice model. […]
# (ii) Clinical evaluation of the mice after CHI. Mice were evaluated to define the severity of injury and functional recovery by using a set of clinical criteria. […]
# For assessment of posttraumatic neurological impairment, a Neurological Severity Score (NSS) previously described, modified and validated, was used (Shapira et al. 1988; Chen et al. 1996; Beni-Adani et al. 2001). […] The ΔNSS, calculated as the difference between NSS at 1 h and the NSS at any later time-point, is a parameter which reflects the degree of spontaneous recovery following brain injury, as described (Chen et al., 1996; Yatsiv et al., 2002; Beni-Adani et al., 2001). […]
# [4] = in vivo; cited from earlier work; remark: listed apart in the source
# [5] = tested on: neuroactive amino acids in the animal's brain; details: cited from earlier work
smiles,measurement,setting,value
"CN1C(=O)N(C)C2C1N(C)C(=O)N2C (centres unmarked) [mebicar, 2,4,6,8-tetramethyl-2,4,6,8-tetraazabicyclo[3.3.0]-octane-3,7-dione]",metabolism,[1],not metabolized
same,time to leave the organism,[1],≤ 24 h
same,effect in shock; acid-base and oxygen homeostasis,shock,antishock action
same,effect on parameters of body function under extreme conditions,stress and hypoxia; stress and hypoxia,protective action
same,"effect on muscle tone, movement coordination, working capacity",stress and hypoxia; tested animals,"without affecting the muscle tone, movement coordination or working capacity"
same,Water content in the brain % (contralateral hemisphere),"head trauma in mice [2]; mice, closed head injury, mebicar 750 mg/kg intraperitoneally 1 h after injury, 24 h after injury, contralateral hemisphere, M ± SE",77.9 ± 0.27%
same,Water content in the brain % (traumatized area),"head trauma in mice [2]; mice, closed head injury, mebicar 750 mg/kg intraperitoneally 1 h after injury, 24 h after injury, traumatized area, M ± SE",80.7 ± 0.41%
same,effect on water content of the contralateral hemisphere,"head trauma in mice [2]; traumatized mice, mebicar 750 mg/kg i.p.",decreased water content up to normal parameters
same,less water accumulated in the traumatized hemisphere of the brain,"head trauma in mice [2]; traumatized mice, mebicar 750 mg/kg i.p., versus untreated traumatized mice",About 35%
same,effect in experimental arrhythmias,experimental arrhythmias,protective action
same,effect on myocardial contractility,myocardial contractility,increase the myocardial contractility
same,recovery in clinical function (share of mice),head trauma in mice [3],55.5%
same,toxicity,[4],extremely low toxicity
same,change of balance of neuroactive amino acids in the brain,[5],raising the content of gamma-butyric acid
